Where two headings read alike, the source gives them in different places.
Columns and labels:
CYP3A [1] = target: T1, CYP3A (Homo sapiens, UniProt P08684); assay: Inhibition of CYP3A-mediated nifedipine metabolism in human liver microsomes by gallic acid esters (Example 1); settings: for activity at 100 µM / activity at 500 µM / activity at 10 µM / activity at 25 µM / activity at 50 µM: read-out: Relative Nifedipine Oxidation Rate (± S.D.)
Experimental: The known CYP3A substrate nifedipine (Gonzalez, F. J., et al., Human P45OPCN1: sequence, chromosome localization, and direct evidence through cDNA expression that P45OPCN1 is nifedipine oxidase, DNA, 2:79-86 (1988)) was used as a test substrate for evaluating the potential of various gallic acid esters to inhibit CYP3A metabolism in a human liver microsome study.
(§1) Microsomal pellets were prepared from the homogenate using standard differential centrifugation procedures (Guengerich, Analysis and characterization of enzymes in Principles and Methods of Toxicology, A. W. Hayes (ed.), Raven Press, New York. pp. 777-814 (1989)) and were stored at -80° C. in Tris-acetate buffer, pH 7.4, containing 20% w/v glycerol. Microsomes were diluted in 100 mM potassium phosphate buffer, pH 7.4, for use in metabolic incubations. Microsomal protein and CYP content of the human liver microsomes were determined using methods of Bradford (Bradford, M. M. A rapid and sensitive method for the quantitation of microgram quantities of protein utilizing the principles of protein-dye binding. Anal. Biochem. 72:248-254 (1976)) and Omura and Sato (Omura, T. et. al. The carbon monoxide-binding pigment of liver microsomes II. Solubilization, purification and properties. J. Biol. Chem. 239:2370-2378 (1964)), respectively.
In the experiments, 100 μM nifedipine and either 5 μl of a solution of one of the gallic acid esters (at a concentration indicated in Table 1) or 5 μl of solvent alone (control) were preincubated along with 0.1 mg/ml of the human liver microsomal proteins and 1 mM diethylenetriarninepentaacetic acid (DETAPAC) in 100 mM phosphate buffer, pH 7.4, for 5 minutes at 37°0 C. Metabolic reactions were started by addition of reduced β-nicotinamide adenine dinucleotide phosphate (NADPH) to give a final concentration of 1 mM and a final volume of 0.5 ml. Metabolic reactions were stopped after 3 minutes by vortex mixing with 0.2 ml of an extraction solvent of (94:6) acetonitrile:glacial acetic acid. Protein was precipitated by centrifugation (3000 rpm×10 minutes) and supernatants were analyzed for nifedipine and its oxidation product 2,6-dimethyl-4-(2-nitrophenyl)-3,5-pyridinedicarboxylic acid dimethyl ester by High Performance Liquid Chromatography (HPLC).
All experiments were conducted in triplicate and compared to incubations carried out without NADPH or without substrate. The data are the mean±standard deviation of three measurements.
^a Substrate and inhibitor were dissolved in acetonitrile except for
lauryl gallate which required methanol as vehicle.
^b Inhibition constant Ki determinations utilized 10, 20, 50 and
100 μM nifedipine substrate concentrations and experiments were run in
duplicate. Ki values were determined by regression analysis of rate
data using SigmaPlot V4.OS software (SPSS Inc., San Rafael, California).

[2] = Joint FAO/WHO Expert Committee, cited from earlier work; for temporary acceptable daily intake: 1/200 of no observed effect level, 90 day feeding studies in rats
CYP3A [3] = assay: Inhibition of CYP3A-mediated metabolism of amiodarone, buspirone and nifedipine in human liver microsomes (Example 2)
Experimental: as §1
(§2) The ability of propyl gallate at various concentrations to inhibit metabolism for three representative drugs through inhibition of the cytochrome P450 mechanism was tested. Human liver microsomes were prepared and each of three drugs, amiodarone, buspirone, or nifedipine, were incubated with the microsomes in the presence of propyl gallate or a known inhibitor of CYP3A metabolism. Metabolism in the presence of propyl gallate or known CYP3A inhibitor was compared to a control treated only with the solvent in which the inhibitor was dissolved.
(§3) Clin. Pharmacol. Ther. 64: 655-60 (1998)) by human liver microsomes was tested. The microsomes were prepared as in Example 1.
(§4) The amiodarone was present in a concentration of 100 μM, the buspirone was in a concentration of 25 μM, and the nifedipine was present in a concentration of 25 μM. The propyl gallate was tested with each of these drugs at concentrations of 25, 50, and 100 μM.
(§5) The drug and optionally the inhibitor were preincubated with the microsomes at 1 nmol CYP/ml and 1 mM DETAPAC in 100 mM phosphate buffer, pH 7.4 for 5 minutes at 37° C. After the preincubation, metabolic reactions were started by the addition of 1 mM NADPH. Samples were taken at 1, 2, and 3 minutes after the start of the reaction and analyzed by HPLC. Disappearance of substrate and/or formation of metabolite were quantitated by comparison to standard curves.
(§6) The metabolism rates (nmol/ml/min) are the mean±standard deviation of three measurements.
(§7) ^a Formation rate of N-desethylamiodarone metabolite (nmol/ml/min)
(§8) ^b Buspirone disappearance (nmol/ml/min)
(§9) ^c Formation of nifedipine oxidation product
(§10) 2,6-dimethyl-4-(2-nitrophenyl)-3,5-pyridinedicarboxylic acid, dimethyl

CYP3A [4] = target: T1, CYP3A; assay: as above
Experimental: as §1, §2, §3, §4, §5, §6, §7, §8, §9, §10

[5] = inhibitor 100 μM, amiodarone 100 μM
[6] = read-out: Buspirone metabolism rate, % control
[7] = read-out: Nifedipine metabolism rate, % control

T1 sequence (P08684 2-503 limits assumed): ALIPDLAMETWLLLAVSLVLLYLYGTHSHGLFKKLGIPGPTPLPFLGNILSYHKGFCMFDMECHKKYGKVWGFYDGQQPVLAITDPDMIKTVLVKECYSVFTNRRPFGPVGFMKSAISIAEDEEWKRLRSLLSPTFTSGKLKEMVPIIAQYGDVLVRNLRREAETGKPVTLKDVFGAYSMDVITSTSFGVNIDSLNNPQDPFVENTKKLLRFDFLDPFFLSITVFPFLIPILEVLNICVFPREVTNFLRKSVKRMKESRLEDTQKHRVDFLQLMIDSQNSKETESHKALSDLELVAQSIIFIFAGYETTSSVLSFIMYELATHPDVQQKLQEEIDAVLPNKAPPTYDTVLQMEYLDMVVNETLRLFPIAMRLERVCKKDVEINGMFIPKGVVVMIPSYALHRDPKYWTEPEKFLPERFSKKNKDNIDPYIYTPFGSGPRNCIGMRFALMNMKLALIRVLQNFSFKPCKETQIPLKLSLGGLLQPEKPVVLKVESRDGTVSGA

Structure (SMILES)	activity at 100 µM (CYP3A [1])	activity at 500 µM (CYP3A [1])	temporary acceptable daily intake [2]	activity at 10 µM (CYP3A [1])	activity at 25 µM (CYP3A [1])	activity at 50 µM (CYP3A [1])	Mean ± SD metabolism rate, amiodarone (formation rate of N-desethylamiodarone) (CYP3A [3]; [5])	Ki (CYP3A [1])	further results
COC(=O)c1cc(O)c(O)c(O)c1 [Methyl gallate, methyl gallate]	53%	16%							
CCCCCCCCCCCCOC(=O)c1cc(O)c(O)c(O)c1 [Lauryl gallate, lauryl gallate]	6.4%		0-0.05 mg/kg body weight	61%	31%	12.6%			
CC[C@H]1OC(=O)[C@H](C)[C@@H](O[C@H]2C[C@@](C)(OC)[C@@H](O)[C@H](C)O2)[C@H](C)[C@@H](O[C@@H]2O[C@H](C)C[C@H](N(C)C)[C@H]2O)[C@](C)(O)C[C@@H](C)C(=O)[C@H](C)[C@@H](O)[C@]1(C)O [Erythromycin, reference compound]							0.84 ± 0.07 nmol/mL/min		
CCCOC(=O)c1cc(O)c(O)c(O)c1 [Propyl gallate, 3,4,5-trihydroxybenzoic acid, n-propyl ester]	34%	6.1%				59%	0.32 ± 0.03 nmol/mL/min	64 ± 2 µM	acceptable daily intake ([2]; 1/100 of no observed effect level, 90 day feeding study in rats): 0 to 1.4 mg/kg/day; remaining activity at 25 µM (CYP3A [4]; [6]): 65%; remaining activity at 50 µM (CYP3A [4]; [6]): 42%; remaining activity at 100 µM (CYP3A [4]; [6]): 29%; remaining activity at 25 µM (CYP3A [4]; [7]): 82%; remaining activity at 50 µM (CYP3A [4]; [7]): 54%; remaining activity at 100 µM (CYP3A [4]; [7]): 33%; Inhibition of CYP3A-mediated metabolism (in words) (CYP3A [3]): effective inhibitor of CYP3A-mediated metabolism; Inhibition of drug metabolism compared with known CYP3A inhibitors (in words) (CYP3A [3]): better at inhibiting drug metabolism than the established CYP3A inhibitors diltiazem, erythromycin, and verapamil; Mean ± SD metabolism rate, amiodarone (formation rate of N-desethylamiodarone) (CYP3A [3]; inhibitor 25 μM, amiodarone 100 μM): 0.94 ± 0.02 nmol/mL/min; Mean ± SD metabolism rate, amiodarone (formation rate of N-desethylamiodarone) (CYP3A [3]; inhibitor 50 μM, amiodarone 100 μM): 0.55 ± 0.02 nmol/mL/min; Amiodarone metabolism rate, % control (CYP3A [3]; microsomes, 25 µM): 49 % control; Amiodarone metabolism rate, % control (CYP3A [3]; microsomes, 50 µM): 28 % control; Amiodarone metabolism rate, % control (CYP3A [3]; microsomes, 100 µM): 17 % control
CCCCCCCCOC(=O)c1cc(O)c(O)c(O)c1 [Octyl gallate, octyl gallate]	1.1%		0-0.1 mg/kg body weight	44%	17.5%	4.9%		5.2 ± 0.2 µM	Inhibition of CYP3A-mediated metabolism (in words) (CYP3A [1]): especially good inhibitor of the metabolism at relatively low concentrations
CC(=O)N1CCN(c2ccc(OCC3COC(Cn4ccnc4)(c4ccc(Cl)cc4Cl)O3)cc2)CC1 (centres unmarked) [Ketoconazole, reference compound]									Amiodarone metabolism rate, % control (CYP3A [3]; inhibitor 1 μM, amiodarone 100 μM): 4 % control
